# Ends that are not written are not given here.
# Experiments:
# Type in all cases: in vivo, C57BL/6 mice
# GPNMB protein = experiment: Antibody titer by ELISA in plasma of vaccinated mice; details: vs control vaccine group; KLH-bound peptide 20 μg with Titer Max Gold s.c. at 8 weeks of age, HFD-fed mice; plasma up to 6 weeks; FIG. 2A
# Description: First, the antibody titers of the obtained two peptide vaccines were examined. Peptide vaccine 1 or peptide vaccine 2 (20 μg) and Titer Max Gold adjuvant (Titer Max USA) conjugated with KLH as carrier protein for induction of cytotoxic antibody were mixed in two syringes according to the manufacturer's protocol for emulsification. Subsequently, eight-week-old C57BL/6 mice fed with HFD from 4 weeks of age were subcutaneously injected with KLH-binding antigen peptide (20 μg) with a Titer Max Gold adjuvant to induce cytotoxic antibodies. C57BL/6 mice in the control group were subcutaneously injected with a KLH solution (hereinafter, referred to as “control vaccine”) mixed with Titer Max Gold in an equal amount. Plasma was collected from the tail vein of each mouse immediately after administration of the peptide vaccine and after 2, 4, and 6 weeks for antibody titer analysis. The antibody titer produced by injection of each peptide was measured by ELISA. Specifically, first, a 96-well microtiter plate (Nunc-Immuno MicroWell 96-well solid plate, Thermo Scientific) was coated using a carbonate buffer containing peptide vaccine 1 or peptide vaccine 2 bonded to bovine serum albumin (BSA). […] After reacting with the TMB substrate (Sigma-Aldrich, T0440), the optical density was measured at 450 nm (0D450) using a microtiter plate reader (iMark microplate reader, Bio-Rad).
# [1] = tested on: Gpnmb, Cdkn1a, and Cdkn2a; experiment: RNA analysis (qPCR) of adipose tissue; details: HFD-fed mice, 16 weeks of age, s.c. vaccination at 8 weeks of age, FIG. 2C
# Description: Total RNA (1 μg) was isolated from adipose tissue samples using RNA-Bee (TEL-TEST Inc.). Real-time PCR (qPCR) was performed using a Light Cycler 480 (Roche) equipped with a universal probe library and a Light Cycler 480 probe master (Roche) according to the manufacturer's instructions. Rplp0 was used as an internal control.
# RNA analysis of Gpnmb, Cdkn1a, and Cdkn2a was performed using the same method as in “4.” of Reference Example 1, except that adipose tissue collected from C57BL/6 mice (16 weeks of age) bred by feeding HFD from 4 weeks of age and administered with peptide vaccine 1 or a control vaccine by subcutaneous injection at a time point of 8 weeks of age was used. In FIG. 2C, “Cont vac” is a C57BL/6 mouse administered with a control vaccine, and “Gpnmb vac” is a C57BL/6 mouse administered with peptide vaccine 1.
# [2] = tested on: aging-related acidic β-galactosidase (SA-β-gal); experiment: SA-β-gal staining of adipose tissue; details: HFD-fed mice, 16 weeks of age, s.c. vaccination at 8 weeks of age, vs control vaccine, FIGS. 2G, 2H
# Description: Aging-related acidic β-galactosidase (SA-β-gal) activity in adipose tissue was tested. Briefly, adipose tissue newly isolated from each Gpnmb-DTR mouse was incubated at 37° C. for 2 hours in a β-gal staining solution (containing 1 mg/ml of 5-bromo-4-chloro-3-indaryl β-D-galactopyranoside (X-gal), 5 mmol/L potassium ferrocyanide, 150 mmol/L of sodium chloride, 2 mmol/L of magnesium chloride, 0.01% of sodium deoxycholate, and 0.02% of nonidet-40). Then, the stained adipose tissue was captured (refer to FIG. 1C). SA-β-gal stainability was quantified by Image-J software (refer to FIG. 1D). […]
# SA-β-gal staining was performed using the same method as in “3.” of Reference Example 1, except that adipose tissue collected from C57BL/6 mice (16 weeks of age) bred by feeding HFD from 4 weeks of age and administered with peptide vaccine 1 or a control vaccine by subcutaneous injection at a time point of 8 weeks of age was used. The SA-β-gal stainability was quantified by Image-J software (refer to FIG. 2H). […]
sequence,measurement,setting,value
"RRGDGRWKD (also: KLH conjugate; listed as Mus musculus) [peptide vaccine 1, peptide of positions 63 to 71 of mouse GPNMB protein]",antibody titer against GPNMB protein,GPNMB protein,significantly higher
same,expression of Cdkn1a,[1],downregulation
same,expression of Cdkn2a,[1],downregulation
same,SA-β-gal activity,[2],decrease
